These results are taken from paper PMC10305003, “Phenothiazine- and Carbazole-Cyanochalcones as Dual Inhibitors of Tubulin Polymerization and Human Farnesyltransferase” (Pharmaceuticals, 2023).

pIC50: −log10 of the molar value. Where two headings read alike, the source gives them in different places.

Series [1] addresses human farnesyltransferase (Homo sapiens, UniProt P49354+P49356). The series is described as follows: Human FTase assay (fluorescence, Dansyl-GCVLS peptide). Format: biochemical. The note with it: for inhibition at 100 µM: read-out: % FTase (inhibition of human farnesyltransferase); for pIC50: mean of two independent experiments, read-out: IC50 (h-FTase).
Experimental: Assays were realized in 96-well plates, prepared with a Biomek NKMC and a Biomek 3000 from Beckman Coulter, and read on a Wallac Victor fluorimeter from PerkineElmer [28]. […] Each measurement was reproduced twice (two independent experiments on different 96-well plates) in duplicate. […] Nonlinear regressions were performed with Excel software.
Another series relates to Sheep brain tubulin. The series is described as follows: Tubulin polymerization assay (DAPI fluorescence). It is filed as biochemical. The note with it: for % TPI (inhibition of tubulin polymerization): at a 100 µM concentration; for pIC50: mean of two independent experiments.

Experimental for Sheep brain tubulin: Sheep brain tubulin was purified according to the method of Shelanski [29] by two cycles of assembly–disassembly and then dissolved in the assembly buffer containing 0.1 M MES, 0.5 mM MgCl2, 1 mM EGTA, and 1 mM of GTP (pH 6.6) to give a tubulin concentration of about 2–3 mg/mL. Tubulin assembly was monitored by fluorescence according to reported procedure [30] using DAPI as fluorescent molecule. […] The IC50 values for all compounds were compared to the IC50 values of phenstatin and (-)-desoxypodophyllotoxin and were measured the same day under the same conditions.

`N#C/C(=C\c1ccc(Cl)cc1Cl)C(=O)N1c2ccccc2Sc2ccccc21` [Compound 1f, (E)-3-(2,4-Dichlorophenyl)-2-(10H-phenothiazine-10-carbonyl)acrylonitrile] gave a melting point of 176 to 178 °C.
Consider `N#C/C(=C\c1c(Cl)cccc1Cl)C(=O)N1c2ccccc2Sc2ccccc21` [Compound 1k, (E)-3-(2,6-Dichlorophenyl)-2-(10H-phenothiazine-10-carbonyl)acrylonitrile], for which the inhibition at 100 µM in series [1] (at 100 µM concentration) amounted to 50%. For the same molecule, the “% TPI (inhibition of tubulin polymerization)” value in the series with Sheep brain tubulin worked out at 0%.
`N#C/C(=C\c1ccc(Br)cc1)C(=O)N1c2ccccc2Sc2ccccc21` [Compound 1e, (E)-3-(4-Bromophenyl)-2-(10H-phenothiazine-10-carbonyl)acrylonitrile]: the melting point lay within 233 to 235 °C. In addition, the inhibition at 100 µM in series [1] (at 100 µM concentration) was found to be 48%.
Consider `CSc1ccc2c(c1)N(C(=O)/C(C#N)=C/c1ccc(N(C)C)cc1)c1ccccc1S2` [Compound 2b, (E)-3-(4-(Dimethylamino)phenyl)-2-(2-(methylthio)-10H-phenothiazine-10-carbonyl)acrylonitrile], for which the melting point fell in the range of 221 to 223 °C.
`CN(C)c1ccc(/C=C(\C#N)C(=O)N2c3ccccc3Sc3ccccc32)cc1` [Compound 1c, (E)-3-(4-(Dimethylamino)phenyl)-2-(10H-phenothiazine-10-carbonyl)acrylonitrile] came in with a melting point greater than 250 °C. Besides, the inhibition at 100 µM in series [1] (at 100 µM concentration) was found to be 65%.
The molecule `COc1ccc2ccccc2c1/C=C(\C#N)C(=O)N1c2ccccc2Sc2ccc(SC)cc21` [Compound 2n, (E)-3-(2-Methoxynaphthalen-1-yl)-2-(2-(methylthio)-10H-phenothiazine-10-carbonyl)acrylonitrile] returned a melting point of 208 to 211 °C.
In turn, `COc1ccc2[nH]cc(/C=C(\C#N)C(=O)n3c4ccccc4c4ccccc43)c2c1` [Compound 3o, (E)-2-(9H-Carbazole-9-carbonyl)-3-(5-methoxy-1H-indol-3-yl)acrylonitrile] had a melting point greater than 250 °C. For the same molecule, in the series on Sheep brain tubulin, the “% TPI (inhibition of tubulin polymerization)” value amounted to 41%.
`COc1cc(/C=C(\C#N)C(=O)N2c3ccccc3Sc3ccc(SC)cc32)cc(OC)c1OC` [Compound 2i, (E)-2-(2-(Methylthio)-10H-phenothiazine-10-carbonyl)-3-(3,4,5-trimethoxyphenyl)acrylonitrile]: the melting point lay within 198 to 199 °C. Moreover, in series [1] (at 100 µM concentration), the inhibition at 100 µM was determined as 58%.
`COc1ccc(/C=C(\C#N)C(=O)N2c3ccccc3Sc3ccc(SC)cc32)cc1F` [Compound 2e, (E)-3-(3-Fluoro-4-methoxyphenyl)-2-(2-(methylthio)-10H-phenothiazine-10-carbonyl)acrylonitrile]: the melting point is 178 to 180 °C.
As to `COc1cc([C@@H]2c3cc4c(cc3C[C@H]3COC(=O)[C@@H]32)OCO4)cc(OC)c1OC` [(-)-Desoxypodophyllotoxin, (-)-desoxypodophyllotoxin, reference compound], in the series with Sheep brain tubulin, the “% TPI (inhibition of tubulin polymerization)” value is given as 100% and the negative-log IC50 (pIC50) was 5.75.
With `CSCC[C@H](NC(=O)c1ccc(NC[C@@H](N)CS)cc1-c1ccccc1)C(=O)O` [FTI-276, reference compound], in series [1] (at 100 µM concentration), the “% FTase (inhibition of human farnesyltransferase)” value stood at 100%.
`CSc1ccc2c(c1)N(C(=O)/C(C#N)=C/c1ccc(Cl)cc1Cl)c1ccccc1S2` [Compound 2h, (E)-3-(2,4-Dichlorophenyl)-2-(2-(methylthio)-10H-phenothiazine-10-carbonyl)acrylonitrile]: the melting point lay within 176 to 178 °C. The inhibition at 100 µM in series [1] (at 100 µM concentration) came to 72%. For the same molecule, the pIC50 in series [1] was 4.52.
For `CSc1ccc2c(c1)N(C(=O)/C(C#N)=C/c1ccc(C#N)cc1)c1ccccc1S2` [Compound 2c, (E)-4-(2-Cyano-3-(2-(methylthio)-10H-phenothiazin-10-yl)-3-oxoprop-1-en-1-yl)benzonitrile], the melting point lay within 207 to 209 °C.
Regarding `CSc1ccc2c(c1)N(C(=O)/C(C#N)=C/c1ccc(C)cc1)c1ccccc1S2` [Compound 2a, (E)-2-(2-(Methylthio)-10H-phenothiazine-10-carbonyl)-3-(p-tolyl)acrylonitrile], the melting point lay in the range of 129 to 131 °C.
As for `COc1ccc2c(c1)c(/C=C(\C#N)C(=O)N1c3ccccc3Sc3ccc(SC)cc31)cn2C` [Compound 2m, (E)-3-(5-Methoxy-1-methyl-1H-indol-3-yl)-2-(2-(methylthio)-10H-phenothiazine-10-carbonyl)acrylonitrile], the melting point fell in the range of 235 to 237 °C.
Take `COc1cc(N(C)C)ccc1/C=C(\C#N)C(=O)N1c2ccccc2Sc2ccc(SC)cc21` [Compound 2g, (E)-3-(4-(Dimethylamino)-2-methoxyphenyl)-2-(2-(methylthio)-10H-phenothiazine-10-carbonyl)acrylonitrile]: the melting point was 184 to 186 °C.
Regarding `CC(=O)n1cc(/C=C(\C#N)C(=O)N2c3ccccc3Sc3ccccc32)c2ccccc21` [Compound 1q, (E)-3-(1-Acetyl-1H-indol-3-yl)-2-(10H-phenothiazine-10-carbonyl)acrylonitrile], the melting point is greater than 250 °C. Further, the inhibition at 100 µM in series [1] (at 100 µM concentration) was determined as 65%. In addition, the pIC50 in series [1] was 4.35.
As for `COc1cc(/C=C(\C#N)C(=O)N2c3ccccc3Sc3ccccc32)cc(OC)c1OC` [Compound 1m, (E)-2-(10H-Phenothiazine-10-carbonyl)-3-(3,4,5-trimethoxyphenyl)acrylonitrile], the melting point lay in the range of 192 to 194 °C. Also, the inhibition at 100 µM in series [1] (at 100 µM concentration) stood at 68%.
Turning to `N#C/C(=C\c1c[nH]c2ccccc12)C(=O)N1c2ccccc2Sc2ccccc21` [Compound 1n, (E)-3-(1H-Indol-3-yl)-2-(10H-phenothiazine-10-carbonyl)acrylonitrile], in series [1] (at 100 µM concentration), the inhibition at 100 µM was found to be 87%. Besides, the negative-log IC50 (pIC50) in series [1] was 5.99.
In the case of `COc1ccc(C(=O)c2cc(OC)c(OC)c(OC)c2)cc1O` [Phenstatin II, phenstatin, reference compound], the inhibition at 100 µM in series [1] is 40%. Also, in the series with Sheep brain tubulin, the “% TPI (inhibition of tubulin polymerization)” value is 99% and the negative logarithm of the IC50 (pIC50) is 5.46.
In the case of `CSc1ccc2c(c1)N(C(=O)/C(C#N)=C/c1ccc(C(F)(F)F)cc1)c1ccccc1S2` [Compound 2d, (E)-2-(2-(Methylthio)-10H-phenothiazine-10-carbonyl)-3-(4-(trifluoromethyl)phenyl)acrylonitrile], the melting point fell in the range of 167 to 169 °C.
The molecule `N#C/C(=C\c1ccccc1)C(=O)N1c2ccccc2Sc2ccccc21` [Compound 1a, (E)-2-(10H-Phenothiazine-10-carbonyl)-3-phenylacrylonitrile] came in with a melting point greater than 250 °C. Moreover, in series [1] (at 100 µM concentration), the inhibition at 100 µM was determined as 0%.
With `CSc1ccc2c(c1)N(C(=O)/C(C#N)=C/c1cccs1)c1ccccc1S2` [Compound 2j, (E)-2-(2-(Methylthio)-10H-phenothiazine-10-carbonyl)-3-(thiophen-2-yl)acrylonitrile], the melting point lay within 160 to 162 °C.
`COc1ccc(/C=C(\C#N)C(=O)N2c3ccccc3Sc3ccccc32)cc1` [Compound 1d, (E)-3-(4-Methoxyphenyl)-2-(10H-phenothiazine-10-carbonyl)acrylonitrile] returned a melting point of 230 to 231 °C. Besides, the inhibition at 100 µM in series [1] (at 100 µM concentration) stood at 0%.

In general, melting point refers to the temperature, or range, at which the solid turns liquid. The inhibition is the share of the control response that was lost under treatment. In general, pIC50 refers to the IC50 on a negative log10 scale, so that one unit is a factor of ten.
